# Test results reported in the supplement of paper PMC10307832.
# How the values were obtained:
# Assay in all cases: relative viability (nuclei count vs DMSO), 5 days (fraction); higher = more cells survive
# Carfilzomib + Pictilisib = compound: CC(C)C[C@H](NC(=O)[C@H](CCc1ccccc1)NC(=O)CN1CCOCC1)C(=O)N[C@@H](Cc1ccccc1)C(=O)N[C@@H](CC(C)C)C(=O)[C@@]1(C)CO1 [Carfilzomib] + CS(=O)(=O)N1CCN(Cc2cc3nc(-c4cccc5[nH]ncc45)nc(N4CCOCC4)c3s2)CC1 [Pictilisib] (partner 1 µM)
# In short: (§1)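 Values are medians from duplicate plates. Each reflects relative viability, defined as the nuclei count of treated wells over that of vehicle wells. Lung cancer cell lines in 1536-well plates were pin-tool dosed one day after seeding with one drug alone or with a fixed anchor-drug dose plus five library-drug doses (not always all listed) in √10 steps, then fixed, stained and imaged at 4× after 5 days.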
# Carfilzomib + OSI-027 = compound: CC(C)C[C@H](NC(=O)[C@H](CCc1ccccc1)NC(=O)CN1CCOCC1)C(=O)N[C@@H](Cc1ccccc1)C(=O)N[C@@H](CC(C)C)C(=O)[C@@]1(C)CO1 [Carfilzomib] + COc1cccc2cc(-c3nc([C@H]4CC[C@H](C(=O)O)CC4)n4ncnc(N)c34)[nH]c12 [OSI-027] (partner 0.5 µM)
# In short: as §1
# Carfilzomib + Linsitinib = compound: CC(C)C[C@H](NC(=O)[C@H](CCc1ccccc1)NC(=O)CN1CCOCC1)C(=O)N[C@@H](Cc1ccccc1)C(=O)N[C@@H](CC(C)C)C(=O)[C@@]1(C)CO1 [Carfilzomib] + C[C@]1(O)C[C@@H](c2nc(-c3ccc4ccc(-c5ccccc5)nc4c3)c3c(N)nccn32)C1 [Linsitinib] (partner 1 µM)
# In short: as §1
# Crizotinib + Foretinib = compound: C[C@@H](Oc1cc(-c2cnn(C3CCNCC3)c2)cnc1N)c1c(Cl)ccc(F)c1Cl [Crizotinib] + COc1cc2c(Oc3ccc(NC(=O)C4(C(=O)Nc5ccc(F)cc5)CC4)cc3F)ccnc2cc1OCCCN1CCOCC1 [Foretinib] (partner 0.25 µM)
# In short: as §1
# Olaparib + Foretinib = compound: O=C(c1cc(Cc2n[nH]c(=O)c3ccccc23)ccc1F)N1CCN(C(=O)C2CC2)CC1 [Olaparib] + COc1cc2c(Oc3ccc(NC(=O)C4(C(=O)Nc5ccc(F)cc5)CC4)cc3F)ccnc2cc1OCCCN1CCOCC1 [Foretinib] (partner 0.25 µM)
# In short: as §1
cell line,measurement,setting,value
NCI-H1793,relative viability,Carfilzomib + Pictilisib; first compound 0.003162 µM,0.328
same,relative viability,Carfilzomib + Pictilisib; first compound 0.01 µM,0.293
same,relative viability,Carfilzomib + Pictilisib; first compound 0.03162 µM,0.335
same,relative viability,Carfilzomib + Pictilisib; first compound 0.1 µM,0.248
same,relative viability,Carfilzomib + OSI-027; first compound 0.003162 µM,0.323
same,relative viability,Carfilzomib + OSI-027; first compound 0.01 µM,0.369
same,relative viability,Carfilzomib + OSI-027; first compound 0.03162 µM,0.269
same,relative viability,Carfilzomib + OSI-027; first compound 0.1 µM,0.133
same,relative viability,Carfilzomib + Linsitinib; first compound 0.003162 µM,0.737
same,relative viability,Carfilzomib + Linsitinib; first compound 0.01 µM,0.761
same,relative viability,Carfilzomib + Linsitinib; first compound 0.03162 µM,0.939
same,relative viability,Carfilzomib + Linsitinib; first compound 0.1 µM,0.585
same,relative viability,Crizotinib + Foretinib; first compound 0.03162 µM,0.879
same,relative viability,Crizotinib + Foretinib; first compound 0.1 µM,0.604
same,relative viability,Crizotinib + Foretinib; first compound 1 µM,0.705
same,relative viability,Olaparib + Foretinib; first compound 0.08 µM,0.684
same,relative viability,Olaparib + Foretinib; first compound 0.253 µM,0.624
same,relative viability,Olaparib + Foretinib; first compound 2.53 µM,0.648
same,relative viability,Olaparib + Foretinib; first compound 8 µM,0.706
